# Laboratory results reported in patent US20170283458A1, “COLLAGEN-BINDING SYNTHETIC PEPTIDOGLYCANS FOR WOUND HEALING” (Symic Biomedical, Inc., priority 2009, published 2017).
# Ends that are not written are not given here.
# Legend:
# collagen = target: T1, collagen (Bos taurus, UniProt P02453+P02465); experiment: Fibrillogenesis turbidity assay (absorbance at 313 nm); format: biochemical; details: 4 mg/mL collagen, 10:1 collagen:treatment unless otherwise indicated
# T1 construct: purchased Inamed, Freemont, Calif; Nutragen
# T1 sequence (P02453 162-1217 limits assumed): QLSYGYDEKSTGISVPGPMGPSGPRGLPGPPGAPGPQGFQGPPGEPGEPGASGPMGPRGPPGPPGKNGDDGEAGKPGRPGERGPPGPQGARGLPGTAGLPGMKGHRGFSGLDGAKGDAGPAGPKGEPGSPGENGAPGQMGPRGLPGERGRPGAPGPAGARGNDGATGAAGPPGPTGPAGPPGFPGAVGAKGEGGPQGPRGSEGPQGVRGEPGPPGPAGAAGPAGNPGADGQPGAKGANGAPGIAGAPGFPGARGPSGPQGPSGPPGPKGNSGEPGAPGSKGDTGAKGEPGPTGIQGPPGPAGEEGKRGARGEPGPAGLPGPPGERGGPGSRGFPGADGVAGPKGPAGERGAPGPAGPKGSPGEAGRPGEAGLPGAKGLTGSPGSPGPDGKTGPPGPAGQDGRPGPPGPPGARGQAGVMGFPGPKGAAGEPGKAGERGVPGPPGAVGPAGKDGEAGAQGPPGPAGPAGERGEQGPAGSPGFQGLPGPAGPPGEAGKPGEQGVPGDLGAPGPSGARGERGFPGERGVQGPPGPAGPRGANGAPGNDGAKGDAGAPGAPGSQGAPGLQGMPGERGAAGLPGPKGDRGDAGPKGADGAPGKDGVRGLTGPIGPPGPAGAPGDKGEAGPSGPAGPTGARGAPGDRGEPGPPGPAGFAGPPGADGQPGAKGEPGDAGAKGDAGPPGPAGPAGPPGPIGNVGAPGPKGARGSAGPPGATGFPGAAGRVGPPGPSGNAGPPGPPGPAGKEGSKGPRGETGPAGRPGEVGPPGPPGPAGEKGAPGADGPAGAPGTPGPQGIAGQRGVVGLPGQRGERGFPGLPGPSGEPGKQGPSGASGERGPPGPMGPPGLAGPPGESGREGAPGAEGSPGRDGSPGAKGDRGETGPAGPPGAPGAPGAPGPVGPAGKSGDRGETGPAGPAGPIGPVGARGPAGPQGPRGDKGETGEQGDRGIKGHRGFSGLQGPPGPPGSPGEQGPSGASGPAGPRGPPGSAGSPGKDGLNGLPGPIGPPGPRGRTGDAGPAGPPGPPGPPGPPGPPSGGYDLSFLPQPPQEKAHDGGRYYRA
# T1 sequence (P02465 80-1117 limits assumed): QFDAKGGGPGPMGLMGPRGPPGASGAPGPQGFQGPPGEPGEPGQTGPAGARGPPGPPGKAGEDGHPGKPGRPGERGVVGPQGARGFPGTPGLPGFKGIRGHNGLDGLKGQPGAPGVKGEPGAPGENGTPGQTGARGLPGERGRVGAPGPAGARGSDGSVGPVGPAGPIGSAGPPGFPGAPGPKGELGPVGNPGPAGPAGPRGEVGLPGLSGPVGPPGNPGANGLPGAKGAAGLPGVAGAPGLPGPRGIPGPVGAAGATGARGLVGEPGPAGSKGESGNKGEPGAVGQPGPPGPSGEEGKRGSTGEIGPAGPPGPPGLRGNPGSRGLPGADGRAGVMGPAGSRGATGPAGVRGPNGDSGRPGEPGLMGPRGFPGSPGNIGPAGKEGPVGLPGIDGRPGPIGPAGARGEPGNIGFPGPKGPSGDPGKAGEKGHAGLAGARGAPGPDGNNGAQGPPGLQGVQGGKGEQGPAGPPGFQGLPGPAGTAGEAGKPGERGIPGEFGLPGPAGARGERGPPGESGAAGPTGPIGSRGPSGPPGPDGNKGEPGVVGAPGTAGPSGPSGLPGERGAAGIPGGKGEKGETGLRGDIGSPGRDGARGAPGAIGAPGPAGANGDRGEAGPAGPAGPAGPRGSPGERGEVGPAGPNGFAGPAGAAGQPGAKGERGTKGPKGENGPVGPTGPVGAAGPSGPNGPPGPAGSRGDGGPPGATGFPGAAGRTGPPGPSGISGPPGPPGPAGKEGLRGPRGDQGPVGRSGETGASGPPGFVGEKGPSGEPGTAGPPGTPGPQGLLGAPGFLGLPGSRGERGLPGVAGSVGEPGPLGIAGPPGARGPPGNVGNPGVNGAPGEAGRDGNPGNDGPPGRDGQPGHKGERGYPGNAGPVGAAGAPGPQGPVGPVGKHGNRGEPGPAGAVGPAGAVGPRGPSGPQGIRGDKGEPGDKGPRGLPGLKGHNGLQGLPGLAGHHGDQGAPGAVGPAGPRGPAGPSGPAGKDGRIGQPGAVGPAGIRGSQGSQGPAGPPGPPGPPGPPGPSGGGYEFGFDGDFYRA
# Experimental: (§1) Gels were made with Nutragen collagen (Inamed, Freemont, Calif.) at a final concentration of 4 mg/mL collagen. Nutragen stock is 6.4 mg/mL in 10 mM HCl. Gel preparation was performed on ice, and fresh samples were made before each test. The collagen solution was adjusted to physiologic pH and salt concentration, by adding appropriate volumes of 10×PBS (phosphate buffered saline), 1×PBS, and 1M NaOH. For most experiments, samples of DS, decorin, DS-SILY, or DS-Dc13 were added at a 10:1 collagen:treatment molar ratio by a final 1×PBS addition (equal volumes across treatments) in which the test samples were dissolved at appropriate concentrations. In this way, samples are constantly kept at pH 7.4 and physiologic salt concentration. Collagen-alone samples received a 1×PBS addition with no sample dissolved. Fibrillogenesis will be induced by incubating neutralized collagen solutions at 37° C. overnight in a humidified chamber to avoid dehydration. Gel solutions with collagen:treatment molar ratios of other than 10:1 were prepared similarly.
# Collagen fibrillogenesis was monitored by measuring turbidity related absorbance at 313 nm providing information on rate of fibrillogenesis and fibril diameter. Gel solutions were prepared as described in EXAMPLE 16 (4 mg/mL collagen, 10:1 collagen:treatment, unless otherwise indicated) and 50 uL/well were added at 4° C. to a 384-well plate. The plate was kept at 4° C. for 4 hours before initiating fibril formation. A SpectraMax M5 at 37° C. was used to measure absorbance at 313 nm at 30 s intervals for 6 hours.
# A fibrillogenesis assay as described for DS-SILY, EXAMPLE 19, performed with the conjugate DS-Dc13.
# collagen I = target: T2, collagen I (Bos taurus, UniProt P02453+P02465); experiment: Cryo-SEM measurements on collagen I, fibril diameter; format: biochemical; details: 4 mg/mL collagen, 10:1 collagen:treatment, cryo-SEM 20,000×
# T2 construct: purchased Inamed, Freemont, Calif; Nutragen
# T2 sequence (P02453 162-1217 limits assumed): as the sequence (P02453 162-1217 limits assumed) above
# T2 sequence (P02465 80-1117 limits assumed): as the sequence (P02465 80-1117 limits assumed) above
# Experimental: as §1
# Gels for cryo-SEM were formed, as in EXAMPLE 16, directly on the SEM stage and incubated at 37° C. overnight. The stages were then secured in a cryo-holder and plunged into liquid nitrogen slush. Samples were then transferred to a Gatan Alto 2500 pre-chamber cooled to −170° C. under vacuum. A free-break surface was created with a cooled scalpel, and each sample evaporated under sublimation conditions for 20 min. The sample was coated by platinum sputter coating for 120 s. Samples were transferred to the cryo-stage at −130° C. and regions with similar orientation were imaged for comparison across treatments. Analysis of the images was performed to determine the fibril diameter distribution, presented in histograms adjacent the corresponding image in FIG. 14, and average fibril diameter, FIG. 17 an 18;. Fibril diameter was calculated using ImageJ software (NIH) measuring individual fibrils by hand (drawing a line across fibrils and measuring its length after properly setting the scale). At least 45 independent fibril measurement were recorded for average fibril diameter calculations.
# Human dermal fibroblasts = experiment: TGF-β1 production by human dermal fibroblasts (ELISA); format: cell-based; details: 1.4 μM treatment, 48 hours
# Experimental: Human dermal fibroblasts (Cascade Biologics) were seeded onto 96-well tissue culture polystyrene plates at a seeding density of 1.83×10^3 cells/well. Cells adhered overnight and cell medium was aspirated. 100 μL/well of cell medium containing a final concentration of 1.4 μM treatment delivered from a concentrated solution of treatment in 1×PBS was added to the cells. After 48 hours, cell medium was removed and frozen at −80 C until further testing. TGF-β1 was measured by ELISA using a kit and protocol from R&D Systems.
# [1] = test system: Human coronary artery smooth muscle cells (HCA SMC); experiment: Gel compaction by smooth muscle cells in collagen gels; format: cell-based; details: Days 3 and 5
# Experimental: Human coronary artery smooth muscle cells (HCA SMC) (Cascade Biologics) were cultured in growth medium (Medium 231 supplemented with smooth muscle growth factor). Cells from passage 3 were used for all experiments. Differentiation medium (Medium 231 supplemented with 1% FBS and 1× pen/strep) was used for all experiments unless otherwise noted.
# Collagen gels were prepared with each additive as described with the exception that the 1×PBS example addition was omitted to accommodate the addition of cells in media. After incubating on ice for 30 min, HCA SMCs in differentiation medium were added to the gel solutions to a final concentration of 1×10^6 cells/mL. Gels were formed in quadruplicate in 48-well non-tissue culture treated plates (Costar) for 6 hrs before adding 500 μL/well differentiation medium. Gels were freed from the well edges after 24 hrs. Medium was changed every 2-3 days and images for compaction were taken at the same time points using a Gel Doc System (Bio-Rad). The cross-sectional area of circular gels correlating to degree of compaction was determined using ImageJ software (NIH). Gels containing no cells were used as a negative control and cells in collagen gels absent additive were used as a positive control. […] By day 10 all gels had compacted to approximately 10% of the original gel area, and differences between additives were small.
# Long-Evans rats = experiment: Rat incisional model, tensile testing of scar (scar strength); format: in vivo
# Experimental: Using sterile techniques, longitudinal wounds were incised on shaved dorsal skin of the rats. A 4 cm incision was cut through the panniculus down to the skeletal musculature, and a 250 μL single dose of either 10 mg/mL hyaluronic acid (HA) or HA+DS-SILY was applied to the open wound by a syringe. DS-SILY was tested at 0.5, 1, and 2.5 mg/mL mixed with HA. The incision was then sutured closed and animals were returned to individual cages and monitored for complications. Negative control rats received no treatment and were treated identically. A pilot study was performed (n=3) at time points 3, 7, 10, 14, and 21 days, followed by a higher powered study (n=9) for 21 and 28 day time points.
# At a predetermined time after surgery (3-28 days) the animals were euthanized. Photographs of the incision were obtained, and the dermal wound including a 1 inch area around the wound edge was excised and cut into 4mm wide strips using a custom cutting device with fixed blades. Relevant tissues were harvested for tensile strength testing and histologic study.
# Based on these findings, a full powered (n=9 rats/treatment) was performed using the later time points 21-day and 28-day, and comparing the same low dose, but modifying the high dose to 0.25 mg DS-SILY. DS-SILY was delivered with HA in each study and the negative control received no treatment.
# Following necropsy, 4 mm skin strips (n=4 per animal) were placed in 1×PBS and kept at 4° C. for up to 6 hours. The wound breaking strength was measured at time points from 3 to 21 days. Skin samples were loaded onto a mechanical testing system (Test Resources, mode:100P/Q) such that the incision was orthogonal to the grips. Samples were loaded under tension with a rate of 5 mm/min to failure. […] No differences were observed between the low and high peptidoglycan concentrations.
substance,measurement,setting,value
"DS-SILY: collagen-binding peptidoglycan in which a single SILY peptide was conjugated to dermatan sulfate via PDPH (RRANAALKAGELYKSILYGC; also: single peptide conjugated to dermatan sulfate via PDPH, site not given here)",rate of fibrillogenesis,collagen,decrease the rate of fibrillogenesis
same,average fibril diameter,collagen I,significant decrease in average fibril diameter
same,TGF-β1 in cell medium,Human dermal fibroblasts,significantly decreased TGF-β1
same,gel compaction at early time points,[1],significantly compacted more than gels made of collagen alone or collagen with dermatan sulfate
same,wound breaking strength,"Long-Evans rats; 21 days post-injury, vs untreated or HA treated wounds",significant increase in wound breaking strength when compared to untreated or HA treated wounds
same,scar strength,"Long-Evans rats; full powered study, 0.125 mg and 0.25 mg with HA, 21-days",increased scar strength over no treatment
same,scar strength,"Long-Evans rats; full powered study, 0.125 mg and 0.25 mg with HA, 28-days","significantly higher compared to the HA control, but was not different from no treatment"
same,scar strength,"Long-Evans rats; pilot study, low (0.125 mg) and high (0.625 mg) dose delivered with HA, 21-days",significantly increases scar strength
